Values after ≈ are worked out from the molar mass of the structure shown.
What was measured:
Assay in all cases: microbe, parasite or virus in culture
Type in all cases: cell-based
Conditions in all cases: for MIC: Mycobacterium tuberculosis, 336 h, read-out: Minimum inhibiting concentration of substances with general formula I
[1] = system: M. tuberculosis MDR strain 7357/1998
[2] = system: M. tuberculosis MDR strain Praha 1
[3] = system: M. tuberculosis MDR strain 9449/2007
[4] = system: M. tuberculosis MDR strain Praha 4
[5] = system: M. tuberculosis MDR strain 234/2005
[6] = system: M. tuberculosis MDR strain Praha 131
[7] = system: M. tuberculosis MDR strain 8666/2010

Compound	Minimum inhibiting concentration of commonly used antibiotics and antituberculosis medicaments [1]	strain resistant or sensitive to the drug [1]	Minimum inhibiting concentration of commonly used antibiotics and antituberculosis medicaments [2]	strain resistant or sensitive to the drug [2]	Minimum inhibiting concentration of commonly used antibiotics and antituberculosis medicaments [3]	strain resistant or sensitive to the drug [3]	Minimum inhibiting concentration of commonly used antibiotics and antituberculosis medicaments [4]	strain resistant or sensitive to the drug [4]	Minimum inhibiting concentration of commonly used antibiotics and antituberculosis medicaments [5]	strain resistant or sensitive to the drug [5]	Minimum inhibiting concentration of commonly used antibiotics and antituberculosis medicaments [6]	strain resistant or sensitive to the drug [6]	Minimum inhibiting concentration of commonly used antibiotics and antituberculosis medicaments [7]	strain resistant or sensitive to the drug [7]	MIC [1] [µM]	MIC [2] [µM]	MIC [3] [µM]	MIC [4] [µM]	MIC [5] [µM]	MIC [6] [µM]	also measured
CO[C@H]1/C=C/O[C@@]2(C)Oc3c(C)c(O)c4c(O)c(c(/C=N/N5CCN(C)CC5)c(O)c4c3C2=O)NC(=O)/C(C)=C\C=C\[C@H](C)[C@H](O)[C@@H](C)[C@@H](O)[C@@H](C)[C@H](OC(C)=O)[C@@H]1C [Rifampicin]	>9.7 R μmol · l^−1	>9.7 R	>9.7 R μmol · l^−1	>9.7 R	>9.7 R μmol · l^−1	>9.7 R	>9.7 R μmol · l^−1	>9.7 R	>9.7 R μmol · l^−1	>9.7 R	>9.7 R μmol · l^−1	>9.7 R	>9.7 R μmol · l^−1	>9.7 R	–	–	–	–	–	–	–
CC(C)/N=c1\cc2n(-c3ccc(Cl)cc3)c3ccccc3nc-2cc1Nc1ccc(Cl)cc1 [Clofazimin]	0.13 C μmol · l^−1	0.13 C	0.53 R μmol · l^−1	0.53 R	0.13 C μmol · l^−1	0.13 C	0.53 R μmol · l^−1	0.53 R	0.06 C μmol · l^−1	0.06 C	0.26 C μmol · l^−1	0.26 C	2.11 R μmol · l^−1	2.11 R	–	–	–	–	–	–	–
COc1ccc(-c2noc(SCc3cc([N+](=O)[O-])cc([N+](=O)[O-])c3)n2)cc1 [Compound 3]	–	–	–	–	–	–	–	–	–	–	–	–	–	–	0.5 (≈ 0.194 µg/mL)	1 (≈ 0.388 µg/mL)	0.5 (≈ 0.194 µg/mL)	0.5 (≈ 0.194 µg/mL)	0.5 (≈ 0.194 µg/mL)	0.5 (≈ 0.194 µg/mL)	MIC [7]: 0.5 µM (≈ 0.194 µg/mL)
O=[N+]([O-])c1cc(CSc2nc(-c3cccc(Cl)c3)no2)cc([N+](=O)[O-])c1 [Compound 5]	–	–	–	–	–	–	–	–	–	–	–	–	–	–	1 (≈ 0.393 µg/mL)	1 (≈ 0.393 µg/mL)	1 (≈ 0.393 µg/mL)	0.5 (≈ 0.196 µg/mL)	0.5 (≈ 0.196 µg/mL)	1 (≈ 0.393 µg/mL)	MIC [7]: 0.5 µM (≈ 0.196 µg/mL)
O=[N+]([O-])c1cc(CSc2nc(-c3ccc(Br)cc3)no2)cc([N+](=O)[O-])c1 [Compound 9]	–	–	–	–	–	–	–	–	–	–	–	–	–	–	1 (≈ 0.437 µg/mL)	0.5 (≈ 0.219 µg/mL)	0.5 (≈ 0.219 µg/mL)	0.5 (≈ 0.219 µg/mL)	0.5 (≈ 0.219 µg/mL)	1 (≈ 0.437 µg/mL)	MIC [7]: 0.5 µM (≈ 0.219 µg/mL)
Gentamicin	1.05 C μmol · l^−1	1.05 C	1.05 C μmol · l^−1	1.05 C	1.05 C μmol · l^−1	1.05 C	0.52 C μmol · l^−1	0.52 C	0.26 C μmol · l^−1	0.26 C	>8.37 R μmol · l^−1	>8.37 R	2.09 C μmol · l^−1	2.09 C	–	–	–	–	–	–	–
